Data: patent publication US20250388568A1, “NLRP3 INHIBITORS” (Kodiak Sciences Inc., priority 2022, published 2025)
Read-outs that look alike come from different tables or passages of the source.

What was measured:
[1] = tested on: IL-1β release in THP-1-ASC-GFP cells after NLRP3 activation; test: IC50 determination of IL-1β release inhibition in THP-1-ASC-GFP cells; type: cell-based; conditions: THP1-ASC-GFP, read-out: IL-1β IC50 (nM) THP1 cells
Description: Example 78: IC50 Determination of IL-1β Release Inhibition in THP-1-ASC-GFP Cells The compounds were tested for their ability to inhibit the IL-1β release in the THP-1-ASC-GFP cells after NLRP3 activation. THP1-ASC-GFP cells (Invivogen […] thawed following Invivogen's initial culture procedure. […] The growth medium was composed of RPM1640 medium (Gibco 32404-014), 10% heat inactivated (HI) serum (Gibco A3840102), Pen/Strep (Quality Biologics 118-089-721), 10 mM Hepes (Quality Biologics 118-089-721), 2 mM Glutamax (GIBCO 35050-061), 100 μg/mL normocin (Invivogen ant-nr), 100 μg/mL Zeocin (Invivogen ant-zn). The growth medium was freshly prepared once a week and sterile filtered. Assay medium consisted of RPMI 1640 medium, 10 mM Hepes, 2 mM Glutamax and Pen/Strep. To the assay medium, 1 μg/mL LPS (Invivogen tlrl-3pelps) was added. A cell suspension was prepared with assay medium and LPS at 1.25M cells per mL. With an electronic pipet, 80 μl of cell suspension was added to U bottom 96 well polystyrene plates (VWR 10062-902) leaving columns 1 and 2 empty. The plates were placed in the incubator for 4 hours. […] DMSO). An hour prior to the end of LPS incubation, a separate 96 deep well plate, Plate B, was prepared with 400 μL of assay media per well, then 2 μL of the stock DMSO solution from Plate A was added to each corresponding well. Plate B was covered to avoid media evaporation. In a 50 mL tube, a solution of nigericin in assay media at […] concentration was prepared. To a new 96 deep well plate, Plate C, 200 μL of this nigericin containing media was dispensed to each well and […] of the test compounds from Plate A to each corresponding well was added. Plate C was covered to avoid media evaporation. After 4 hours of priming, all the media from the LPS treated THP-1 cells in the initial U bottom plate was removed manually. To this plate of primed cells, 80 μL/well test compounds from Plate B was added in duplicate columns (5 compounds tested per plate). The plate was placed in an incubator for 30 min. […] The plate was placed back in the incubator for 1 hour. At the end of 1 hour, the supernatant from this test plate was transferred to a new 96 well V bottom polypropylene plate which was frozen immediately at -80° C. The plate was transferred to -20° C. the next day and awaiting further determination of cytokine IL-1β level. The release of IL-1β into the cell media was determined by MSD® Multi-Spot Assay System (V-Plex, IL-1B kit, […]-4). Following the manufacture's protocol and using the Alternate Protocol 3, Dilute-In-Plate protocol specifically, the level of IL-1β in the above collected supernatant plate was measured as electrochemiluminescent signals. Using MSD DISCOVERY WORKBENCH® analysis software, the signals were converted to the concentration of IL-1β in each well. The IC50 values of the compounds were calculated using the Graph Pad Prism software based on the […] concentration determined. The detection range of IL-1β using MSD kit was approximately […] (based on various lots of standards purchased from MSD).

[2] = tested on: IL-1β release in U937 cells after NLRP3 activation; test: IC50 determination of IL-1β release inhibition in U937 cells; type: cell-based; conditions: Homo sapiens, read-out: IL-1β IC50 (nM) U937 cells
Summary of the method: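 PMA-differentiated U937 cells (90 h) were primed 5 h with 1 μg/mL LPS, pre-incubated 30 min with compound, then stimulated with nigericin for 1 h. Supernatant IL-1β was quantified by MSD electrochemiluminescence. IC50 was derived from IL-1β concentration, with duplicate wells per compound.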

[3] = THP-1-ASC-GFP cells, LPS priming 4 h, nigericin, average of at least three experiments
[4] = U-937, PMA-differentiated U937 cells, LPS priming 5 h, nigericin, average of at least three experiments

| Compound | IC50 [1, 3] | IC50 [2, 4] | IC50 ([1]; 4 h) | IC50 ([2]; U-937, 5 h) |
| --- | --- | --- | --- | --- |
| Cc1oc([S@](=N)(=O)NC(=O)Nc2c3c(c(F)c4c2CCC4)CCC3)cc1CNC(C)C (single isomer, unassigned) [Example 29] | < 5 nM | < 5 nM |  |  |
| CC(C)n1nc(S(=N)(=O)NC(=O)Nc2c3c(cc4c2CCC4)CCC3)cc1CN1CCC[C@H]1CO (stereo partly drawn) [Example 21, N-((1,2,3,5,6,7-hexahydro-s-indacen-4-yl)carbamoyl)-5-(((S)-2-(hydroxymethyl)pyrrolidin-1-yl)methyl)-1-isopropyl-1H-pyrazole-3-sulfonimidamide] | < 5 nM | < 5 nM |  |  |
| CC(C)NCc1coc([S@](=N)(=O)NC(=O)Nc2c3c(c(F)c4c2CCC4)CCC3)c1 (single isomer, unassigned) [Example 31] | < 5 nM | < 5 nM |  |  |
| Cc1oc(S(=N)(=O)NC(=O)Nc2c3c(cc4c2CCC4)CCC3)cc1CN(C)CC1(CO)CCC1 (centres unmarked) [Example 9, N-((1,2,3,5,6,7-hexahydro-s-indacen-4-yl)carbamoyl)-4-((((1-(hydroxymethyl)cyclobutyl)methyl)(methyl)amino)methyl)-5-methylfuran-2-sulfonimidamide] | < 5 nM | 5 to 50 nM |  |  |
| Cc1oc(S(=N)(=O)NC(=O)Nc2c3c(cc4c2CCC4)CCC3)cc1CNC(C)C (single isomer, unassigned) [Example 27, N-((1,2,3,5,6,7-hexahydro-s-indacen-4-yl)carbamoyl)-4-((isopropylamino)methyl)-5-methylfuran-2-sulfonimidamide] | < 5 nM | < 5 nM |  |  |
| Cc1oc(S(=N)(=O)NC(=O)Nc2c3c(cc4c2CCC4)CCC3)cc1CN (centres unmarked) [Example 24, 4-(aminomethyl)-N-((1,2,3,5,6,7-hexahydro-s-indacen-4-yl)carbamoyl)-5-methylfuran-2-sulfonimidamide] | < 5 nM | 5 to 50 nM |  |  |
| Cc1oc([S@@](=N)(=O)NC(=O)Nc2c3c(cc4c2CCC4)CCC3)cc1CNC(C)C (single isomer, unassigned) [Example 26, formic acid] | 50 to 500 nM | 50 to 500 nM |  |  |
| Cc1oc(S(=O)(=O)NC(=O)Nc2c3c(c(F)c4c2CCC4)CCC3)cc1CN1CC[C@H](O)C1 [Example 38, (S)—N-((8-fluoro-1,2,3,5,6,7-hexahydro-s-indacen-4-yl)carbamoyl)-4-((3-hydroxypyrrolidin-1-yl)methyl)-5-methylfuran-2-sulfonamide] |  |  | 5 to 50 nM | 50 to 500 nM |
| CC(C)NCc1coc([S@@](=N)(=O)NC(=O)Nc2c3c(c(F)c4c2CCC4)CCC3)c1 (single isomer, unassigned) [Example 30] | 50 to 500 nM | > 500 nM |  |  |
| CC(C)n1nc(S(=N)(=O)NC(=O)Nc2c3c(cc4c2CCC4)CCC3)cc1CN1CC(O)C1 (centres unmarked) [Example 19, N-((1,2,3,5,6,7-hexahydro-s-indacen-4-yl)carbamoyl)-5-((3-hydroxyazetidin-1-yl)methyl)-1-isopropyl-1H-pyrazole-3-sulfonimidamide] | < 5 nM | 5 to 50 nM |  |  |

Now from value to compound, other results behind:

| IC50 [1, 3] | IC50 [2, 4] | Compound | IC50 ([1]; 4 h) | IC50 ([2]; U-937, 5 h) |
| --- | --- | --- | --- | --- |
| 5 to 50 nM | 5 to 50 nM | Cc1cc(S(=O)(=O)NC(=O)Nc2c3c(c(Cl)c4c2CCC4)CCC3)oc1CN(C)CC1(O)CCC1 [Example 57, N-((8-chloro-1,2,3,5,6,7-hexahydro-s-indacen-4-yl)carbamoyl)-5-((((1-hydroxycyclobutyl)methyl)(methyl)amino)methyl)-4-methylfuran-2-sulfonamide] |  |  |
| 5 to 50 nM | 50 to 500 nM | Cc1oc(S(=O)(=O)NC(=O)Nc2c3c(c(F)c4c2CCC4)CCC3)cc1CN1CC[C@@H](O)C1 [Example 39, (R)-N-((8-fluoro-1,2,3,5,6,7-hexahydro-s-indacen-4-yl)carbamoyl)-4-((3-hydroxypyrrolidin-1-yl)methyl)-5-methylfuran-2-sulfonamide] |  |  |
| < 5 nM | 5 to 50 nM | Cc1cc(S(=O)(=O)NC(=O)Nc2c3c(c(F)c4c2CCC4)CCC3)oc1CN1CC[C@H](O)C1 [Example 51, (S)-N-((8-fluoro-1,2,3,5,6,7-hexahydro-s-indacen-4-yl)carbamoyl)-5-((3-hydroxypyrrolidin-1-yl)methyl)-4-methylfuran-2-sulfonamide] |  |  |
| 5 to 50 nM | 50 to 500 nM | Cc1oc(S(=O)(=O)NC(=O)Nc2c3c(c(F)c4c2CCC4)CCC3)cc1CNCC1(O)CCC1 [Example 36, N-((8-fluoro-1,2,3,5,6,7-hexahydro-s-indacen-4-yl)carbamoyl)-4-((((1-hydroxycyclobutyl)methyl)amino)methyl)-5-methylfuran-2-sulfonamide] |  |  |
| < 5 nM | 5 to 50 nM | CC(C)(O)c1cc(S(=O)(=O)NC(=O)Nc2c3c(c(F)c4c2CCC4)CCC3)oc1COC1CNC1 [Example 71, 5-((azetidin-3-yloxy)methyl)-N-((8-fluoro-1,2,3,5,6,7-hexahydro-s-indacen-4-yl)carbamoyl)-4-(2-hydroxypropan-2-yl)furan-2-sulfonamide] |  |  |
| 50 to 500 nM | 5 to 50 nM | CN(Cc1cc(S(=O)(=O)NC(=O)Nc2c3c(c(F)c4c2CCC4)CCC3)nn1C)CC1(O)CCC1 [Example 58, 3-(8-fluoro-1,2,3,5,6,7-hexahydro-s-indacen-4-yl)-1-[5-({[(1-hydroxycyclobutyl)methyl](methyl)amino}methyl)-1-methylpyrazol-3-ylsulfonyl]urea] |  |  |
| 5 to 50 nM | 5 to 50 nM | O=C(Nc1c2c(cc3c1CCC3)CCC2)NS(=O)(=O)c1cc2c(o1)CCN(CCCO)C2 [Example 74, N-((1,2,3,5,6,7-hexahydro-s-indacen-4-yl)carbamoyl)-5-(3-hydroxypropyl)-4,5,6,7-tetrahydrofuro[3,2-c]pyridine-2-sulfonamide] |  |  |
| < 5 nM | < 5 nM | Cc1oc(S(=O)(=O)NC(=O)Nc2c3c(c(F)c4c2CCC4)CCC3)cc1CN(C)CC1(O)CCC1 [Example 35, N-((8-fluoro-1,2,3,5,6,7-hexahydro-s-indacen-4-yl)carbamoyl)-4-((((1-hydroxycyclobutyl)methyl)(methyl)amino)methyl)-5-methylfuran-2-sulfonamide] |  |  |
| 5 to 50 nM | 5 to 50 nM | Cc1cc(S(=O)(=O)NC(=O)Nc2c3c(c(F)c4c2CCC4)CCC3)oc1CN(C)CC1(O)CCC1 [Example 50, N-((8-fluoro-1,2,3,5,6,7-hexahydro-s-indacen-4-yl)carbamoyl)-5-((((1-hydroxycyclobutyl)methyl)(methyl)amino)methyl)-4-methylfuran-2-sulfonamide] |  |  |
| 5 to 50 nM | 50 to 500 nM | Cn1nc(S(=O)(=O)NC(=O)Nc2c3c(c(F)c4c2CCC4)CCC3)cc1CN1CC[C@H](O)C1 [Example 60, (S)-N-((8-fluoro-1,2,3,5,6,7-hexahydro-s-indacen-4-yl)carbamoyl)-5-((3-hydroxypyrrolidin-1-yl)methyl)-1-methyl-1H-pyrazole-3-sulfonamide] |  |  |
| 5 to 50 nM | 5 to 50 nM | CN(Cc1coc(S(=O)(=O)NC(=O)Nc2c3c(cc4c2CCC4)CCC3)c1)CC1(O)CCC1 [Example 33, N-((1,2,3,5,6,7-hexahydro-s-indacen-4-yl)carbamoyl)-4-((((1-hydroxycyclobutyl)methyl)(methyl)amino)methyl)furan-2-sulfonamide] |  |  |
| 50 to 500 nM | 50 to 500 nM | Cn1nc(S(=O)(=O)NC(=O)Nc2c3c(c(F)c4c2CCC4)CCC3)cc1CN1CC[C@@H](O)C1 [Example 61, (R)-N-((8-fluoro-1,2,3,5,6,7-hexahydro-s-indacen-4-yl)carbamoyl)-5-((3-hydroxypyrrolidin-1-yl)methyl)-1-methyl-1H-pyrazole-3-sulfonamide] |  |  |
